Experimental findings from patent US10188634B2, “3-(3H-imidazo[4,5-C]pyridin-2-yl)-1 H-pyrazolo[4,3-B]pyridines and therapeutic uses thereof” (Samumed, LLC, priority 2015, dated 2019) are described below.

Type in all cases: cell-based
The subject of experiment [1] is Wnt activity (Sp5-Luc reporter, human Sp5 promoter with eight TCF/LEF binding sites) in SW480 colon carcinoma cells. The experiment is described as follows: Screening assay for Wnt activity: Sp5-Luc reporter gene assay in SW480 cells. As to conditions: 10-point dose-response starting from 10 μM, overnight incubation. From the text: The screening assay for Wnt activity is described as follows. Reporter cell lines can be generated by stably transducing cancer cell lines (e.g., colon cancer) or primary cells (e.g., IEC-6 intestinal cells) with a lentiviral construct that includes a Wnt-responsive promoter driving expression of the firefly luciferase gene.
SW480 colon carcinoma cells were transduced with a lentiviral vector expressing luciferase with a human Sp5 promoter consisting of a sequence of eight TCF/LEF binding sites. SW480 cells stably expressing the Sp5-Luc reporter gene and a hygromycin resistance gene were selected by treatment with 150 μg/mL of hygromycin for 7 days. These stably transduced SW480 cells were expanded in cell culture and used for all further screening activities. Each compound was dissolved in DMSO as a 10 mM stock and used to prepare compound source plates. Serial dilution (1:3, 10-point dose-response curves starting from 10 μM) and compound transfer was performed using the ECHO 550 (Labcyte, Sunnyvale, Calif.) into 384-well white solid bottom assay plates (Greiner Bio-One) with appropriate DMSO backfill for a final DMSO concentration of 0.1%. For Sp5-Luc reporter gene assays, the cells were plated at 4,000 cells/well in 384-well plates with medium containing 1% fetal bovine serum and incubated overnight at 37° C. and 5% CO2. Following incubation, 20 μl of BrightGlo luminescence reagent (Promega) was added to each well of the 384-well assay plates. The plates were placed on an orbital shaker for 2 min and then luminescence was quantified using the Envision (Perkin Elmer) plate reader. Readings were normalized to DMSO only treated cells, and normalized activities were utilized for EC50 calculations using the dose-response log (inhibitor) vs. response -variable slope (four parameters) nonlinear regression feature available in GraphPad Prism 5.0 (or Dotmatics). For EC50 of >10 μM, the percent inhibition at 10 μM is provided.
(Reporter assays use an easily measured gene product as a stand-in for the process of interest.)

For another experiment, the system named is SW480 colon cancer cells. The experiment is described as follows: Cell viability assay (CellTiter-Blue) in SW480 colon cancer cells. The following applies: Homo sapiens, 96 h; for EC50: four days incubation, CellTiter-Blue cell viability; for inhibition at 10 µM: four days, CellTiter-Blue, read-out: percent inhibition at 10 μM (given for EC50 of >10 μM). How it is done: Representative compounds were screened using the following assay procedure to assess the effect on cell viability as described below.
Each compound was dissolved in DMSO as a 10 mM stock and used to prepare compound source plates. Serial dilution (1:3, 8-point dose-response curves from 10 μM to 0.004 μM) and compound transfer was performed using the ECHO 550 (Labcyte, Sunnyvale, Calif.) into 96-well clear bottom, black-walled plates (Corning-Costar).
Approximately 2×10^3 SW480 colon cancer cells were seeded into each well and allowed to incubate in the presence or absence of compound for four days at 37° C./5% CO2. Eight replicates of DMSO-treated cells served as controls and cells treated with compound were performed in duplicate.
After incubation, 20 μL of CellTiter-Blue (Promega) was added to each well allowed to incubate for approximately 3 hours. This reagent was a buffered solution which contains resazurin, metabolically active cells were able to reduce rezarurin (blue) into resorufin (pink) which was highly fluorescent. This measured fluorescence was used as a readout for cell viability.
After incubation, the plates were read at Ex 560 nm Em 590 nm (Cytation 3, BioTek). Dose-response curves were generated and EC50 concentration values were calculated using non-linear regression curve fit in the GraphPad Prism (San Diego, Calif.) or Dotmatics' Studies Software (Bishops Stortford, UK). For EC50 of >10 μM, the percent inhibition at 10 μM is provided.
(In general: Resazurin is reduced to fluorescent resorufin, in cell work by metabolically active cells.)

Experiment [2] has as its system LL29 cells (primary human fibroblasts derived from IPF patients) treated with TGF-β1, α-smooth muscle actin. Put plainly: Inhibition of the fibrotic process: αSMA staining in TGF-β1 treated primary human fibroblasts from IPF patients (LL29 cells). As to conditions: Fibroblast, 96 h; for EC50: LL29 cells treated with TGF-β1 (20 ng/mL), 4 days. The text has this: Representative compounds were screened using primary human fibroblasts (derived from IPF patients) treated with TGF-β1 to determine their ability to inhibit the fibrotic process.
Human Fibroblast Cell Culture: Primary human fibroblasts derived from IPF patients (LL29 cells) [^1Xiaoqiu Liu, et.al., “Fibrotic Lung Fibroblasts Show Blunted Inhibition by cAMP Due to Deficient cAMP Response Element-Binding Protein Phosphorylation”, Journal of Pharmacology and Experimental Therapeutics (2005), 315(2), 678-687; ^2Watts, K. L., et.al., “RhoA signaling modulates cyclin D1 expression in human lung fibroblasts; implications for idiopathic pulmonary fibrosis”, Respiratory Research (2006), 7(1), 88] were obtained from American Type Culture Collection (ATCC) and expanded in F12 medium supplemented with 15% Fetal Bovine Serum and Penicillin/Streptomycin.
Compound Screening: Each compound was dissolved in DMSO as a 10 mM stock and used to prepare compound source plates. […] LL29 cells are plated at 1,500 cells/well in 80 μL/well F12 medium supplemented with 1% Fetal Bovine Serum. One hour after addition of the cells, TGF-β1 (Peprotech; 20 ng/mL) was added to the plates to induce fibrosis (ref. 1 and 2 above). Wells treated with TGF-β1 and containing DMSO were used as controls. Cells were incubated at 37° C. and 5% CO2 for 4 days. Following incubation for 4 days, SYTOX green nucleic acid stain (Life Technologies [Thermo Fisher Scientific]) was added to the wells at a final concentration of 1 μM and incubated at room temperature for 30 min. Cells were then fixed using 4% formaldehyde (Electron Microscopy Sciences), washed 3 times with PBS followed by blocking and permeabilization using 3% Bovine Serum Albumin (BSA; Sigma) and 0.3% Triton X-100 (Sigma) in PBS. Cells were then stained with antibody specific to α-smooth muscle actin (αSMA; Abcam) (ref. 1 and 2 above) in 3% Bovine Serum Albumin (BSA; Sigma) and 0.3% Triton X-100 (Sigma) in PBS, and incubated overnight at 4° C. Cells were then washed 3 times with PBS, followed by incubation with Alexa Flor-647 conjugated secondary antibody (Life Technologies [Thermo Fisher Scientific]) and DAPI at room temperature for 1 hour. Cells were then washed 3 times with PBS and plates were sealed for imaging. αSMA staining was imaged by excitation at 630 nm and emission at 665 nm and quantified using the Compartmental Analysis program on the CellInsight CX5 (Thermo Scientific). Dead or apoptotic cells were excluded from analysis based on positive SYTOX green staining. % of total cells positive for αSMA were counted in each well and normalized to the average of 11 wells treated with TGF-β1 on the same plate using Dotmatics' Studies Software. The normalized averages (fold change over untreated) of 3 replicate wells for each compound concentration were used to create dose-responses curves and EC50 values were calculated using non-linear regression curve fit in the Dotmatics' Studies Software. For EC50 of >10 μM, the percent inhibition at 10 μM is provided.

A further experiment relates to IL-6 in THP-1 cells. The experiment is described as follows: Inhibition of IL-6 in LPS-stimulated THP-1 human monocyte cells (HTRF). The following applies: IL-6 HTRF; for EC50: 500 ng/mL LPS, 22 hours. The protocol:
Human Monocyte Cell Culture: Human monocyte cell line (THP-1 cells; Catalog # TIB-202, ATCC, Manassas, Va.) were cultured in Roswell Park Memorial Institute (RPMI) 1640 Medium (Catalog #21870-100, Buffalo, N.Y.) with 1% L-glutamine, 1% HEPES, 1% Sodium Pyruvate, 2% Sodium Bicarbonate supplemented with 100 units/mL penicillin, 50 μg/mL streptomycin, 2-mercaptoethanol (0.05 mM) [basal medium] and 10% fetal bovine serum (Catalog #16140089, Life Technologies, Carlsbad, Calif.) at 37° C. and 5% CO2.
Compound Screening: THP-1 cells were cultured in basal media with 1% FBS for 24 hours before the start of the assay. Each compound was dissolved in DMSO as a 10 mM stock and used to prepare compound source plates. Serial dilution (1:3, 10-point dose-response curves starting from 10 μM) and compound transfer was performed using the ECHO 550 (Labcyte, Sunnyvale, Calif.) into 384-well white low volume assay plates (Greiner Bio-One) with appropriate DMSO backfill for a final DMSO concentration of 0.1%. THP-1 cells were plated at 5000 cells/well in the 384-well plates and incubated at 37° C. for 2 h. 500 ng/mL of LPS was added after 2 hours and cells were incubated for another 22 hours at 37° C. Plates were spun in a centrifuge for 1 minute at […] and a mixture of anti-IL6 XL665, and anti-IL6 Cryptate diluted in reconstitution buffer (Cisbio Inc.) was added to each well. Following incubation for 3 hrs at room temperature, Homogeneous Time-Resolved Fluorescence (HTRF) was measured using the Envision (Perkin Elmer) at 665 nm and […]. The ratio of fluorescence at 665 nm to 620 nm was used as a readout for IL6 quantification. All samples were processed in duplicate. Readings were normalized to DMSO treated cells and normalized activities were utilized for EC50 calculations using the dose-response log (inhibitor) vs. response -variable slope (four parameters) nonlinear regression feature available in GraphPad Prism 5.0 (or Dotmatics). For EC50 of >10 μM, the percent inhibition at 10 μM is provided.
(In general: TR-FRET usually uses a lanthanide donor and a delayed reading to cut background.)

Bounds are passed on as bounds.

A word on the EC50: it is the concentration at which the effect is half-maximal. A higher EC50 goes with weaker potency. As to `CN(C)CCNc1cc(F)cc(-c2cncc3[nH]c(-c4n[nH]c5ccc(-c6cncc(OCc7ccccc7)c6)nc45)nc23)c1` [Compound 746, N^1-(3-(2-(5-(5-(Benzyloxy)pyridin-3-yl)-1H-pyrazolo[4,3-b]pyridin-3-yl)-3H-imidazo[4,5-c]pyridin-7-yl)-5-fluorophenyl)-N^2,N^2-dimethylethane-1,2-diamine], the EC50 in experiment [1] worked out at 2.72 µM; in the experiment on SW480 colon cancer cells, 3.3 µM; in experiment [2], 2.93 µM; in the experiment on IL-6 in THP-1 cells it was 1.6 µM.
In general, inhibition refers to the share of the control response that was lost under treatment. In the case of `CN(C)CCNc1cc(F)cc(-c2cncc3[nH]c(-c4n[nH]c5ccc(-c6cnccn6)nc45)nc23)c1` [Compound 748, N^1-(3-Fluoro-5-(2-(5-(pyrazin-2-yl)-1H-pyrazolo[4,3-b]pyridin-3-yl)-3H-imidazo[4,5-c]pyridin-7-yl)phenyl)-N^2,N^2-dimethylethane-1,2-diamine], the EC50 was 3.95 µM in experiment [1], 3.74 µM in the experiment on SW480 colon cancer cells, over 10 µM in experiment [2] and 4.23 µM in the experiment with IL-6 in THP-1 cells. Also, in experiment [2] (LL29 cells treated with TGF-β1, 4 days, at 10 μM, read-out: percent inhibition in brackets (given for EC50 >10 μM)), the inhibition at 10 µM came to 41.3%.
With `c1cc(-c2cncc3[nH]c(-c4n[nH]c5ccc(-c6cncc(OCCN7CCCC7)c6)nc45)nc23)co1` [Compound 646, 3-(7-(Furan-3-yl)-3H-imidazo[4,5-c]pyridin-2-yl)-5-(5-(2-(pyrrolidin-1-yl)ethoxy)pyridin-3-yl)-1H-pyrazolo[4,3-b]pyridine], the EC50 in experiment [1] is 4.62 µM; with SW480 colon cancer cells it was over 10 µM; in experiment [2], 3.84 µM; in the experiment on IL-6 in THP-1 cells, 0.435 µM. The inhibition at 10 µM in the experiment with SW480 colon cancer cells turned out to be 33.1%.
For `Fc1cccc(-c2cncc3[nH]c(-c4n[nH]c5ccc(-c6cncc(OCCN7CCCC7)c6)nc45)nc23)c1` [Compound 486, 3-(7-(3-Fluorophenyl)-3H-imidazo[4,5-c]pyridin-2-yl)-5-(5-(2-(pyrrolidin-1-yl)ethoxy)pyridin-3-yl)-1H-pyrazolo[4,3-b]pyridine], the EC50 in experiment [1] is 3.43 µM; with SW480 colon cancer cells, 9.34 µM; in experiment [2], 2.12 µM; in the experiment with IL-6 in THP-1 cells, over 10 µM. Moreover, the inhibition at 10 µM with IL-6 in THP-1 cells (LPS, at 10 μM, read-out: percent inhibition in brackets (given for EC50 >10 μM)) is 47.4%.
Regarding `CN1CCN(c2cncc3[nH]c(-c4n[nH]c5ccc(-c6cncc(OCc7ccccc7)c6)nc45)nc23)CC1` [Compound 618, 5-(5-(Benzyloxy)pyridin-3-yl)-3-(7-(4-methylpiperazin-1-yl)-3H-imidazo[4,5-c]pyridin-2-yl)-1H-pyrazolo[4,3-b]pyridine], the EC50 in experiment [1] was 4.63 µM; with SW480 colon cancer cells, 4.6 µM; in experiment [2], 1.9 µM; in the experiment with IL-6 in THP-1 cells, 1.6 µM.
For `Cc1ccc(-c2cncc3[nH]c(-c4n[nH]c5ccc(-c6cncc(OC7CCCCC7)c6)nc45)nc23)s1` [Compound 691, 5-(5-(Cyclohexyloxy)pyridin-3-yl)-3-(7-(5-methylthiophen-2-yl)-3H-imidazo[4,5-c]pyridin-2-yl)-1H-pyrazolo[4,3-b]pyridine], in that order: 4.03 µM, 4.63 µM, 1.75 µM and 0.003 µM.
Regarding `Cc1ncc(-c2ccc3[nH]nc(-c4nc5c(-c6cc(F)cc(NCCN(C)C)c6)cncc5[nH]4)c3n2)n1C` [Compound 737, N^1-(3-(2-(5-(1,2-Dimethyl-1H-imidazol-5-yl)-1H-pyrazolo[4,3-b]pyridin-3-yl)-3H-imidazo[4,5-c]pyridin-7-yl)-5-fluorophenyl)-N^2,N^2-dimethylethane-1,2-diamine], the EC50 is 3.85 µM in experiment [1], over 10 µM in the experiment with SW480 colon cancer cells, 8.95 µM in experiment [2] and 1.17 µM with IL-6 in THP-1 cells. The inhibition at 10 µM in the experiment on SW480 colon cancer cells was determined as 46.5%.
